Among the test systems are DLD-1 colon; DMS 273 small cell lung; HOP-18 NSCLC; KM20L2 colon; M19-MEL melanoma; XF 498 CNS; DMS 114 small cell lung; RXF-631 renal; MDA-N.
Holding throughout (assay): NCI tumour cell line growth inhibition, 48 h

20 compounds from PubChem BioAssay (NCI) can be followed below.

Each structure is given as a SMILES string.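 Where inhibition never reached the appropriate level, the endpoint shown equals the highest concentration tested. Otherwise, values were interpolated linearly from a five-concentration, 48-hour dose response in 96-well plates. Here, GI50 denotes the concentration required for 50% inhibition of growth. TGI is the concentration that stops growth completely.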

For the compound `O=C(O)CN(c1ccccc1)S(=O)(=O)c1ccc(NC(=O)c2ccccc2)cc1`, the TGI with DLD-1 colon, in the test with DMS 273 small cell lung, in the test with HOP-18 NSCLC, in the test with KM20L2 colon, with M19-MEL melanoma and in the test on XF 498 CNS was more than 100 µM in each case.

Consider `N#C/C(=C\c1ccccc1O)C(N)=O`, for which the TGI in the test with DLD-1 colon, with DMS 114 small cell lung, in the test with DMS 273 small cell lung, in the test with KM20L2 colon, with M19-MEL melanoma and in the test with RXF-631 renal was more than 100 µM in each case. The TGI with XF 498 CNS is more than 100 µM.

Turning to `Cc1ccc(C(=O)O/N=C2/CCCC/C2=C\c2ccccc2)cc1`, the TGI in the test with DLD-1 colon is more than 100 µM; with DMS 273 small cell lung it was 76.9 µM; with HOP-18 NSCLC, more than 100 µM; in the test with KM20L2 colon, more than 100 µM; in the test on M19-MEL melanoma it was more than 100 µM; in the test on XF 498 CNS, more than 100 µM.

`O=[As](O)(O)c1ccc(NCc2ccccc2)cc1` displayed a TGI in the test on MDA-N of more than 100 µM.

With `N#Cc1cc(C#N)c(Cl)nc1N`, in the test on MDA-N, the TGI is more than 10 µM.

With `CC1=CC2CC(C)=C(CC[C@]3(C)CC[C@H]([C@@H](C)C(=O)O)OO3)C(C)(C)C2CC1` (stereo partly drawn), the TGI in the test with DLD-1 colon was 0.426 µM; in the test on DMS 114 small cell lung it was 0.973 µM; in the test on DMS 273 small cell lung it was 1.09 µM; with HOP-18 NSCLC, 1.45 µM; in the test with KM20L2 colon, 2.63 µM; in the test with M19-MEL melanoma it was 3.05 µM. Also, the results for the TGI with RXF-631 renal and with XF 498 CNS were 2.95 µM and 0.768 µM, respectively.

For the compound `NNC(=S)N/N=C(\CCCC(=O)NCCc1ccccc1)CC(=O)c1ccccc1`, the TGI in the test on DLD-1 colon, in the test on DMS 114 small cell lung, in the test with HOP-18 NSCLC, in the test with KM20L2 colon and in the test on M19-MEL melanoma was more than 100 µM throughout.

In the test on MDA-N, `CN1C(=O)c2c(ccc3c2OCO3)C2C(O)Cc3cc4c(cc3C21)OCO4` (stereo not drawn) came in with a TGI of 5.56 µM.

With `CC1=NN(C(=O)c2ccccc2O)C(=O)/C1=C/c1ccc([N+](=O)[O-])cc1`, the TGI with DLD-1 colon is more than 100 µM; in the test on DMS 114 small cell lung, 7.81 µM; in the test on KM20L2 colon it was more than 100 µM; in the test with M19-MEL melanoma, more than 100 µM; in the test on MDA-N, more than 100 µM; in the test on XF 498 CNS, more than 100 µM. The GI50 in the test with MDA-N is 0.0903 µM.

Turning to `O=C1OC(=O)c2c1c(-c1ccccc1)cn2-c1ccc(Cl)cc1`, the TGI with DLD-1 colon, with DMS 114 small cell lung, in the test with DMS 273 small cell lung, in the test on HOP-18 NSCLC, in the test with KM20L2 colon and in the test on M19-MEL melanoma was more than 100 µM in each case. Besides, the TGI in the test with RXF-631 renal and in the test on XF 498 CNS was more than 100 µM throughout.

Turning to `Nc1ncnc2c1ncn2C1OC(COP(=O)(O)CP(=O)(O)O)C(O)C1O` (stereo not drawn), in the test on MDA-N, the TGI is more than 100 µM.

`Cc1cccc(C(=O)c2cccc3ccccc23)c1C(=O)O`: the TGI was more than 100 µM with DLD-1 colon; 13.8 µM with DMS 114 small cell lung; more than 100 µM with DMS 273 small cell lung; more than 100 µM with HOP-18 NSCLC; more than 100 µM in the test on KM20L2 colon; more than 100 µM in the test on M19-MEL melanoma. Besides, the TGI in the test on RXF-631 renal and in the test with XF 498 CNS was more than 100 µM throughout.

As to `COC(=O)Cc1cc(OC)c(OC)cc1Br`, the TGI in the test with DLD-1 colon, in the test with DMS 114 small cell lung, in the test on KM20L2 colon and in the test on M19-MEL melanoma was more than 100 µM each time.

For the compound `COc1cc2c(cc1O)C=NCC2`, the TGI in the test on DLD-1 colon, with DMS 114 small cell lung, with DMS 273 small cell lung, in the test on KM20L2 colon, in the test with M19-MEL melanoma and in the test on XF 498 CNS was more than 100 µM in each case.

Regarding `c1ccc(SC2(Sc3ccccc3)CCCC2)cc1`, the TGI in the test with DLD-1 colon, in the test on DMS 114 small cell lung, in the test on DMS 273 small cell lung, in the test with KM20L2 colon, in the test on M19-MEL melanoma and in the test with RXF-631 renal was more than 100 µM throughout. In addition, the TGI in the test with XF 498 CNS is more than 100 µM.

For `CCC1(C)NN=c2s/c(=C/c3ccc(OC)cc3)c(=O)n2N1` (stereo not drawn), the TGI with DLD-1 colon, in the test on DMS 273 small cell lung, with KM20L2 colon and with XF 498 CNS was more than 100 µM in each case.

Regarding `Cc1ccc(NCCCN2CCN(CCCNc3ccc(C)c4sc5ccccc5c(=O)c34)CC2)c2c(=O)c3ccccc3sc12`, the TGI with MDA-N was more than 100 µM.

Turning to `CCC[CH2][Sn]([CH2]CCC)([O]C(=O)c1c(F)cccc1F)[O]C(=O)c1c(F)cccc1F`, the GI50 with DLD-1 colon is 0.624 µM; with DMS 114 small cell lung, 0.214 µM; with DMS 273 small cell lung, 1.07 µM; in the test on HOP-18 NSCLC, 1.89 µM; in the test on KM20L2 colon it was 1.61 µM; in the test with M19-MEL melanoma, 0.364 µM. For the same compound, in the test with XF 498 CNS, the GI50 is 1.31 µM. Besides, the TGI in the test with DLD-1 colon came to 1.91 µM; with DMS 114 small cell lung, 0.602 µM; in the test on DMS 273 small cell lung, 2.27 µM; in the test on HOP-18 NSCLC it was 3.3 µM; in the test on KM20L2 colon, 2.98 µM; with M19-MEL melanoma, 1.43 µM. For the same compound, the TGI with XF 498 CNS was found to be 2.59 µM.

For `O=C(O)c1ccccc1Cc1ccco1`, the TGI in the test on DLD-1 colon, in the test with DMS 114 small cell lung, with DMS 273 small cell lung, with HOP-18 NSCLC and with KM20L2 colon was more than 100 µM in each case.

For `FC(F)(F)C1(Cl)C(c2ccccc2)=C1c1ccccc1`, the TGI is 28.3 µM with DLD-1 colon; 25.6 µM in the test with DMS 114 small cell lung; 27.6 µM in the test with DMS 273 small cell lung; 35.6 µM with HOP-18 NSCLC; 30.1 µM with KM20L2 colon; 27.7 µM in the test on M19-MEL melanoma. Also, the figures for the TGI in the test with RXF-631 renal and with XF 498 CNS were 29.2 µM and 26.5 µM, respectively.
